Source: patent publication US6475953B1, “Composition and method for treating plants with exogenous chemicals” (Monsanto Technology LLC, priority 1996, dated 2002)

Tests used:
Type in all cases: in vivo
[1] = tested on: plant species indicated in the Example (ABUTH, ECHCF, SIDSP ...); experiment: Greenhouse herbicidal effectiveness test, stated overall or averaged over the plant species of the Example; conditions: statement in the discussion of the Example at the place; rates and comparators as stated there
Excerpt: (§1) The herbicidal effectiveness data set forth herein report “inhibition” as a percentage following a standard procedure in the art which reflects a visual assessment of plant mortality and growth reduction by comparison with untreated plants, made by technicians specially trained to make and record such observations. In all cases. a single technician makes all assessments of percent inhibition within any one experiment or trial. Such measurements are relied upon and regularly reported by Monsanto Company in the course of its herbicide business.
The following procedure was used for testing compositions of the Examples to determine herbicidal effectiveness, except where otherwise indicated. […]
(§2) A set of pots was left untreated as a reference against which effects of the treatments could later be evaluated.
Application of glyphosate compositions was made by spraying with a track sprayer fitted with a 9501E nozzle calibrated to deliver a spray volume of 93 liters per hectare (1/ha) at a pressure of 166 kilopascals (kPa). After treatment, pots were returned to the greenhouse until ready for evaluation. […]
(§3) For evaluation of herbicidal effectiveness, all plants in the test were examined by a single practiced technician, who recorded percent inhibition, a visual measurement of the effectiveness of each treatment by comparison with untreated plants.

[2] = tested on: Velvetleaf (Abutilon theophrasti, ABUTH); experiment: Greenhouse herbicidal effectiveness test, percent inhibition, velvetleaf
Excerpt: as §1
(§4) The following procedure was used for testing compositions of the Examples to determine herbicidal effectiveness, except where otherwise indicated.
(§5) Seeds of the plant species indicated were planted in 85 mm square pots in a soil mix which was previously steam sterilized and prefertilized with a 14-14-14 NPK slow release fertilizer at a rate of 3.6 kg/m3. The pots were placed in a greenhouse with sub-irrigation. About one week after emergence, seedlings were thinned as needed, including removal of any unhealthy or abnormal plants, to create a uniform series of test pots.
(§6) The plants were maintained for the duration of the test in the greenhouse where they received a minimum of 14 hours of light per day. If natural light was insufficient to achieve the daily requirement, artificial light with an intensity of approximately 475 microeinsteins was used to make up the difference. Exposure temperatures were not precisely controlled but averaged about 27° C. during the day and about 18° C. during the night. Plants were sub-irrigated throughout the test to ensure adequate soil moisture levels.
as §2
(§7) Application of glyphosate compositions was made by spraying with a track sprayer fitted with a 9501E nozzle calibrated to deliver a spray volume of 93 liters per hectare (1/ha) at a pressure of 166 kilopascals (kPa). After treatment, pots were returned to the greenhouse until ready for evaluation.
(§8) Treatments were made using dilute aqueous compositions. These could be prepared as spray compositions directly from their ingredients, or by dilution with water of preformulated concentrate compositions.
as §3
(§9) Velvetleaf (Abutilon theophrasti, ABUTH) and Japanese millet (Echinochloa crus-galli, ECHCF) plants were grown and treated by the standard procedures given above. […]

[3] = tested on: Japanese millet (Echinochloa crus-galli, ECHCF); experiment: Greenhouse herbicidal effectiveness test, percent inhibition, Japanese millet; conditions: for % Inhibition ECHCF: Example 90, evaluation 11 days after application
Excerpt: as §1, §4, §5, §6, §2, §7, §8, §3, §9

[4] = tested on: Prickly sida (Sida spinosa, SIDSP); experiment: Greenhouse herbicidal effectiveness test, percent inhibition, prickly sida
Excerpt: as §1, §4, §5, §6, §2, §7, §8
For evaluation of herbicidal effectiveness, all plants in the test were examined by a single practiced technician, who recorded percent inhibition, a visual measurement of the effectiveness of each treatment by comparison with untreated plants. […]
Prickly sida (Sida spinosa, SIDSP) plants were grown and treated by the standard procedures given above. Applications of spray compositions were made 22 days after planting SIDSP, and evaluation of herbicidal inhibition was done 19 days after application.
Prickly sida (Sida spinosa, SIDSP) plants were grown and treated by the standard procedures given above. Applications of spray compositions were made 23 days after planting SIDSP, and […].
Prickly sida (Sida spinosa, SIDSP) plants were grown and treated by the standard procedures given above. Applications of spray compositions were made 22 days after planting SIDSP, and evaluation of herbicidal inhibition was done 19 days after application. […]

[5] = Echinochloa crus-galli, 240 h, read-out: % Inhibition ECHCF
[6] = Sida spinosa, 240 h, read-out: % Inhibition SIDSP
[7] = Example 90, glufosinate rate 50 g a.i./ha, evaluation 11 days after application

ceteareth-30
herbicidal effectiveness, overall for the species of the Example, in words [1]: more effective additives for Formulation B than steareth-10

O=C(O)c1cc(Oc2ccc(C(F)(F)F)cc2Cl)ccc1[N+](=O)[O-] [Acifluorfen]
inhibition at 25 g/ha ([2]; Abutilon theophrasti, 240 h, Example 83, acifluorfen rate 25 g a.i./ha, evaluated 10 days after application): 20%
inhibition at 50 g/ha ([2]; Abutilon theophrasti, 240 h, Example 83, acifluorfen rate 50 g a.i./ha, evaluated 10 days after application): 32%
inhibition at 100 g/ha ([2]; Abutilon theophrasti, 240 h, Example 83, acifluorfen rate 100 g a.i./ha, evaluated 10 days after application): 52%
inhibition at 200 g/ha ([2]; Abutilon theophrasti, 240 h, Example 83, acifluorfen rate 200 g a.i./ha, evaluated 10 days after application): 62%
inhibition at 25 g/ha [3, 5]: 2%
inhibition at 50 g/ha [3, 5]: 7%
inhibition at 100 g/ha [3, 5]: 18%
inhibition at 200 g/ha [3, 5]: 35%
inhibition at 25 g/ha [4, 6]: 15%
inhibition at 50 g/ha [4, 6]: 17%
inhibition at 100 g/ha [4, 6]: 35%
inhibition at 200 g/ha [4, 6]: 40%

CP(=O)(O)CCC(N)C(=O)O (stereo not drawn) [Glufosinate (technical)]
% Inhibition ABUTH [2, 7]: 0%
% Inhibition ECHCF ([3]; glufosinate rate 50 g a.i./ha): 0%
% Inhibition ECHCF ([3]; glufosinate rate 100 g a.i./ha): 0%
% Inhibition SIDSP [4, 7]: 5%
% Inhibition SIDSP ([4]; Example 90, glufosinate rate 100 g a.i./ha, evaluation 11 days after application): 10%

COc1c(Cl)ccc(Cl)c1C(=O)O [Dicamba (technical)]
% Inhibition SIDSP ([4]; dicamba rate 25 g a.i./ha, evaluation 17 days after application): 30%
% Inhibition SIDSP ([4]; dicamba rate 50 g a.i./ha, evaluation 17 days after application): 40%
% Inhibition SIDSP ([4]; dicamba rate 100 g a.i./ha, evaluation 17 days after application): 50%
% Inhibition SIDSP ([4]; dicamba rate 200 g a.i./ha, evaluation 17 days after application): 58%

COC(=O)NS(=O)(=O)c1ccc(N)cc1 [Asulam (technical)]
% Inhibition ABUTH ([2]; asulam rate 400 g a.i./ha, evaluation 14 days after application): 17%

C[N+](C)(C)CCCNS(=O)(=O)C(F)(F)C(F)(F)C(F)(F)C(F)(F)C(F)(F)C(F)(F)C(F)(F)C(F)(F)F.[I-] [Fluorad FC-135, 3-(((heptadecafluorooctyl)sulfonyl)amino)-N,N,N-trimethyl-1-propaminium iodide]
concentration of Fluorad FC-135 which had to be added in tank-mix to Formulation B to bring its herbicidal performance up to that of Formulation C ([2]; Example 21, ABUTH, 20 days after application): ~0.02%
optimum adjuvant concentration ([2]; Example 25, ABUTH, tank-mix adjuvant for glyphosate as Formulation B, 21 days after application): 0.2%
concentration of Fluorad FC-135 which had to be added in tank-mix to Formulation B to bring its herbicidal performance up to that of Formulation C ([3]; Example 21, ECHCF, after application): approximately 0.25%
optimum adjuvant concentration ([3]; Example 25, ECHCF, tank-mix adjuvant for glyphosate as Formulation B, 21 days after application): 0.2%
concentration of Fluorad FC-135 which had to be added in tank-mix to Formulation B to bring its herbicidal performance up to that of Formulation C ([4]; Example 21, SIDSP, 20 days after application): ~0.1%

Steareth-20
herbicidal effectiveness, overall for the species of the Example, in words [1]: more effective additives for Formulation B than steareth-10

O=C(O)CNCP(=O)(O)O [glyphosate, N-phosphonomethylglycine, reference compound]
average inhibition of ABUTH ([2]; Example 27, average over four glyphosate rates, no excipient, 19 days after application): 32%
